For the experiment, the target named is T1, purified human Factor XIa (Homo sapiens, UniProt P03951).
T1 construct: purchased Haematologic Technologies
Description: Factor XIa assay (chromogenic substrate S-2366 hydrolysis, Ki). It counts as biochemical. As for the experimental part: The effectiveness of compounds of the present invention as inhibitors of the coagulation factors XIa, VIIa, IXa, Xa, XIIa, plasma kallikrein or thrombin, can be determined using a relevant purified serine protease, respectively, and an appropriate synthetic substrate. The rate of hydrolysis of the chromogenic or fluorogenic substrate by the relevant serine protease was measured both in the absence and presence of compounds of the present invention. […] A decrease in the rate of absorbance or fluorescence change in the presence of inhibitor is indicative of enzyme inhibition. Such methods are known to one skilled in the art. The results of this assay are expressed as the inhibitory constant, Ki.
Values of Ki were determined by allowing the protease to react with the substrate in the presence of the inhibitor. Reactions were allowed to go for periods of 20-180 minutes (depending on the protease) and the velocities (rate of absorbance or fluorescence change versus time) were measured. The following relationships were used to calculate Ki values:
vs/vo=A+((B−A)/1+((IC50/(I)^n))) and […]

Where [1] appears, read: purified human Factor XIa 75-200 pM, substrate S-2366, 50 mM HEPES pH 7.4, read-out: Factor XIa Ki.

Counter-ions that a name gives are not always drawn. Like-named read-outs stand apart in the source and are kept apart here.

Our source for the Ki values is patent US8367709B2, “Dipeptide analogs as coagulation factor inhibitors” (priority 2007, dated 2013).

T1 sequence (P03951 19-387): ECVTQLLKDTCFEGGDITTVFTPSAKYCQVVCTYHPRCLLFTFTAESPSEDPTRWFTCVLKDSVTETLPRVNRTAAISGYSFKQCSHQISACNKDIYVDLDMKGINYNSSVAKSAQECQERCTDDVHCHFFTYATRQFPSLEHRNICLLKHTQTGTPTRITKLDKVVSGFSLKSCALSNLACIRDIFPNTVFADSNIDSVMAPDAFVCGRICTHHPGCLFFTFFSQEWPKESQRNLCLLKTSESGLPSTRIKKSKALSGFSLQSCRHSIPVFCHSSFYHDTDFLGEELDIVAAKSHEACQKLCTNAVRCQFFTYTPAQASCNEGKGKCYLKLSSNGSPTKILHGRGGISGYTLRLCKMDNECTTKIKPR
T1 sequence (P03951 388-625): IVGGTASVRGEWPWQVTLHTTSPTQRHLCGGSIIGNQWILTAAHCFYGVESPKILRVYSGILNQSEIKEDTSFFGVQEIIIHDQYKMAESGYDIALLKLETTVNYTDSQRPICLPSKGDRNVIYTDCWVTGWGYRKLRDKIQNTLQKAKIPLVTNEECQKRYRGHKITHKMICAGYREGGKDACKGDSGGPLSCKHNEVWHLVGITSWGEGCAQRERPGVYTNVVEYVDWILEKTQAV

With `COC(=O)c1ccc(NC(=O)[C@H](Cc2cc(C)n(C)n2)NC(=O)/C=C/c2c(-n3cnnn3)ccc(Cl)c2F)nc1` [Example 216, (S,E)-methyl 6-(2-(3-(3-chloro-2-fluoro-6-(1H-tetrazol-1-yl)phenyl)acrylamido)-3-(1,5-dimethyl-1H-pyrazol-3-yl)propanamido)nicotinate, TFA salt], affinity was put at a Ki of 65.9 nM.
On the same count and under the same terms, the same measure for `CS(=O)(=O)CC[C@H](NC(=O)/C=C/c1cc(Cl)ccc1-n1cnnn1)C(=O)Nc1ccc(C(=O)O)cc1` [Example 231, (S,E)-4-(2-(3-(5-chloro-2-(1H-tetrazol-1-yl)phenyl)acrylamido)-4-(methylsulfonyl)butanamido)benzoic acid]: 44.4 nM.
In the case of `O=C(/C=C/c1cc(Cl)ccc1-n1cnnn1)N[C@@H](Cc1c[nH]c2ccccc12)C(=O)Nc1ccc(C(=O)O)cc1` [Example 238, (S,E)-4-(2-(3-(5-chloro-2-(1H-tetrazol-1-yl)phenyl)acrylamido)-3-(1H-indol-3-yl)propanamido)benzoic acid, TFA salt], under setting [1], the Ki (as a rule, a measure of affinity in units of concentration, obtained from inhibition or displacement) stood at 4.66 nM.
On to `O=C(/C=C/c1cc(Cl)ccc1-n1cnnn1)N[C@@H](Cc1cccs1)C(=O)Nc1ccc(C(=O)O)cc1` [Example 248, (S,E)-4-(2-(3-(5-chloro-2-(1H-tetrazol-1-yl)phenyl)acrylamido)-3-(thiophen-2-yl)propanamido)benzoic acid], for which, under setting [1], the Ki is 2.41 nM.
With `O=C(/C=C/c1cc(Cl)ccc1-n1cnnn1)N[C@@H](Cc1cccnc1)C(=O)Nc1ccc(C(=O)O)cc1` [Example 249, (S,E)-4-(2-(3-(5-chloro-2-(1H-tetrazol-1-yl)phenyl)acrylamido)-3-(pyridin-3-yl)propanamido)benzoic acid], the Ki under setting [1] was 6.09 nM.
In turn, `O=C(/C=C/c1cc(Cl)ccc1-n1cnnn1)NC(Cc1cnc2ccccc2n1)C(=O)Nc1ccc(C(=O)O)cc1` (stereo not drawn) [Example 251, (E)-4-(2-(3-(5-chloro-2-(1H-tetrazol-1-yl)phenyl)acrylamido)-3-(quinoxalin-2-yl)propanamido)benzoic acid] had a Ki of 16.2 nM.
Turning to `O=C(/C=C/c1cc(Cl)ccc1-n1cnnn1)N[C@@H](CC(=O)NCc1cnccn1)C(=O)Nc1ccc(C(=O)O)cc1` [Example 252, (S,E)-4-(2-(3-(5-chloro-2-(1H-tetrazol-1-yl)phenyl)acrylamido)-4-oxo-4-(pyrazin-2-ylmethylamino)butanamido)benzoic acid], the Ki was 16.2 nM.
Same read-out and setting: the same measure for `N/C(=N/[N+](=O)[O-])NCCC[C@H](NC(=O)/C=C/c1cc(Cl)ccc1-n1cnnn1)C(=O)Nc1ccc(C(=O)O)cc1` [Example 253, 4-((S)-2-((E)-3-(5-chloro-2-(1H-tetrazol-1-yl)phenyl)acrylamido)-5-((Z)-2-nitroguanidino)pentanamido)benzoic acid]: 19.3 nM; for `COC[C@H](NC(=O)/C=C/c1cc(Cl)ccc1-n1cnnn1)C(=O)Nc1ccc(C(=O)O)cc1` [Example 254, (S,E)-4-(2-(3-(5-chloro-2-(1H-tetrazol-1-yl)phenyl)acrylamido)-3-methoxypropanamido)benzoic acid]: 3630 nM.
On the same count and under the same terms, the same measure for `O=C(/C=C/c1cc(Cl)ccc1-n1cnnn1)N[C@H](C(=O)Nc1ccc(C(=O)O)cc1)[C@@H]1CCCNC1` [Example 262, 4-((S)-2-((E)-3-(5-chloro-2-(1H-tetrazol-1-yl)phenyl)acrylamido)-2-((R)-piperidin-3-yl)acetamido)benzoic acid]: 2330 nM.
Regarding `CC(C)(C)SC[C@H](NC(=O)/C=C/c1cc(Cl)ccc1-n1cnnn1)C(=O)Nc1ccc(C(=O)O)cc1` [Example 282, (R,E)-4-(3-(tert-butylthio)-2-(3-(5-chloro-2-(1H-tetrazol-1-yl)phenyl)acrylamido)propanamido)benzoic acid], affinity was put at a Ki of 32.5 nM.
Regarding `O=C(/C=C/c1cc(Cl)ccc1-n1cnnn1)N[C@@H](CC(=O)NCCN1CCOCC1)C(=O)Nc1ccc(C(=O)O)cc1` [Example 286, (S,E)-4-(2-(3-(5-chloro-2-(1H-tetrazol-1-yl)phenyl)acrylamido)-4-(2-morpholinoethylamino)-4-oxobutanamido)benzoic acid, Trifluoroacetic acid salt], affinity was put at a Ki of 481 nM.
Take `O=C(N[C@@H](Cc1ccccc1)C(=O)NCCc1cc(Cl)ccc1-n1cnnn1)c1cn2cccnc2n1` [Example 295]: affinity was put at a Ki of 9260 nM.
On the same count and under the same terms, for `O=C(/C=C/c1cc(Cl)ccc1-n1cnnn1)N[C@@H](CC1CCN(C(=O)c2ccccc2)C1)C(=O)Nc1ccc(C(=O)O)cc1` (stereo partly drawn) [Example 307, 4-((2S)-3-(1-benzoylpyrrolidin-3-yl)-2-((E)-3-(5-chloro-2-(1H-tetrazol-1-yl)phenyl)acrylamido)propanamido)benzoic acid] the value was 12.4 nM.
Turning to “(4-{(S)-2-[(E)-3-(5-chloro-2-tetrazol-1-yl-phenyl)-acryloylamino]-3-phenyl-propionylamino}-cyclohexyl)-carbamic acid methyl ester [Example 11]”, the Ki under setting [1] came to 4440 nM.
